Experimental data reported in PMC6609541, “Enterohepatic circulation of glucuronide metabolites of drugs in dog” (Pharmacology Research & Perspectives, 2019).
Where “and” joins values, the source holds several entries; their conditions need not be identical. Equal values may be shown once. Read-outs that look alike come from different tables or passages of the source. Marks after values point to notes of the source that are not given here.

Tests used:
[1] = Recovery of parent drug and glucuronide metabolites in urine, bile and feces of BDC and intact dogs; type: in vivo, beagle dog; conditions: for % dose in feces, Parent / % dose in bile, Parent / % dose in urine, Parent / renal excretion of parent drug: 0.5 mg/kg IV; for % dose in feces, Parent / % dose in bile, Parent / % dose in urine, Parent: over 48 hours; for % dose in bile, Parent: 0.5 mg/kg; for renal excretion of parent drug: dog (BDC and intact); for Biliary excretion % of glucuronide / Urinary excretion % of glucuronide: dog; for Biliary excretion % of glucuronide: BDC; for Urinary excretion % of glucuronide: BDC and/or intact
Description: (§1) Canagliflozin and DPTQ, both at 0.5 mg/kg, were administered intravenously in 25 mmol/L phosphate buffer (pH 8) containing 10% dimethylacetamide (v/v), 15% ethanol (v/v) via a cephalic vein. Total volume administered was 1 mL/kg. Dogs were housed in stainless steel metabolic cages during the study. Serial blood samples were collected from the jugular vein at 0.08, 0.25, 0.5, 1, 2, 4, 8, 12, 24, 36 and 48‐hours post‐dose with collection tubes containing anticoagulant K3‐EDTA. Plasma was obtained by centrifugation at 1600g for 10 minutes. Cumulative urine samples were collected between 0‐12, 12‐24, 24‐36 and 36‐48 hours and feces were collected between 0‐24 and 24‐48 hours in both intact and BDC dogs. Bile samples were collected between 0‐12, 12‐24, 24‐36, 36‐48 hours in BDC dogs. The weights of all samples except blood and plasma were recorded. All the samples were stored at −70°C until analysis by liquid chromatography tandem‐mass spectrometry (LC‐MS/MS) was performed.
Aliquots of plasma, urine, bile or feces homogenate (50 µL) were incubated with equal volume of 0.2 mol/L sodium acetate buffer (pH 5.0), and 15 μL of β‐glucuronidase (>85 000 units/mL) in a 37°C water bath overnight. The samples were extracted for LC‐MS/MS after the hydrolysis was performed. […] The concentration of O‐glucuronides was determined by subtracting the concentration from the aliquot without treatment of β‐glucuronidase from the one with enzyme treatment.
(§2) Canagliflozin and DPTQ in plasma, bile, urine and feces were quantified using LC‐MS/MS. All samples plasma, urine and bile) were mixed with an organic internal standard solution essentially described previously,15 to precipitate protein and centrifuged, and the resulting supernatants were analyzed using AB Sciex API 4000 quadrupole mass spectrometer (Applied Biosystems, Foster City, CA) equipped with a TurboIonSpray interface. The feces samples were homogenized in MeOH:H2O (1:1) and shaken vigorously to obtain slurry. The homogenates then went through the sample extraction along with other matrices. The blank plasma, urine, bile and feces was spiked with internal standard for calibration curve. The pumps were Shimadzu LC‐10AD units with a SCL‐10A controller (Kyoto, Japan), and a Z‐215 liquid handler (Gilson, Middleton, WI) was used as the autosampler. All compounds were chromatographically separated using a Betasil javelin C18 20 × 2.1‐mm 5‐μm HPLC column (Thermo Fisher Scientific, Waltham, MA). The mobile phase consisted of solvent A (1 mmol/L ammonium bicarbonate in water) and solvent B (1 mmol/L ammonium bicarbonate in methanol). Drugs and metabolites were detected in positive ion mode, using selected ion mode: canagliflozin 462.2 → 191.1 m/z, DPTQ 436.2 → 158.9 m/z, and DPTQ‐O‐glucuronide 612.2 → 418.1.

[2] = target: T1, human wild‐type P‐gp (Homo sapiens, UniProt P08183); test: Bi‐directional transport across MDCKII cells expressing human P‐gp; type: in vitro ADME; parameters: key to Pgp substrate: S, substrate; NS, non‐substrate; conditions: for PappA‐B / PappB‐A: 5 µmol/L compound; for P‐gp substrate: P‐gp‐transfected MDCKII cells; for P‐gp substrate / MDCK permeability (passive membrane permeability): in words; for Pgp substrate: classified from net efflux ratio (NER >3.0 = substrate); for Net efflux ratio: uninhibited ratio divided by inhibited ratio, NER >3.0 = P‐gp substrate
T1 construct: host or cells: MDCKII
Description: MDCKII cells stably expressing human wild‐type P‐gp were obtained from the Netherlands Cancer Institute Amsterdam, The Netherlands). MDCK cells were maintained and the assay was conducted essentially as described previously.12, 13 Transport was measured in both directions across uninhibited and inhibited cell monolayers using a substrate concentration of 5 μmol/L diluted from a 10 mmol/L DMSO stock solution final DMSO concentration of 0.05%) and a single 60‐min time interval.

[3] = Plasma pharmacokinetics after single intravenous administration in bile duct cannulated (BDC) and intact beagle dogs; type: in vivo, beagle dog; conditions: for EHC / AUC(0-inf) / half-life / clearance / AUC / Vd: dog; for EHC: enterohepatic circulation; for AUC(0-inf) / half-life / clearance / AUC / Vd: male, beagle, plasma, iv; for clearance: plasma clearance; for AUC: mean ± SD n=4, read-out: AUC0‐48 hr
Description: Male beagle dogs were obtained from Charles River Laboratories Inc (Wilmington, MA). Pharmacokinetic (PK) studies in intact dogs were conducted at Covance (Greenfield, IN), while bile duct cannulation surgery and PK studies were conducted in these dogs at Covance (Madison, WI). Dogs (weight: 9‐12 kg), were acclimated prior to study initiation according to Standard Operating Procedures (Covance). All intravenous compound administration was by an intravenous catheter implanted in the cephalic vein. Access to food and water was allowed ad libitum. All animal procedures were approved by the Institutional Animal Care and Use Committee at Covance. Replacement bile was not administered during the study since collection of bile was scheduled for a period of 48 hours, replacement is typically administered for studies lasting more than 60 hours.
as §1
Noncompartmental pharmacokinetic parameters were calculated using Watson version 7.4 (Thermo Scientific, Waltham, MA). Statistical significance of differences for pharmacokinetic parameters between two groups was examined with Student's t test using Sigmaplot 12.5 (Systat Software Inc, San Jose, CA).
as §2

[4] = tested on: cryopreserved human hepatocytes; test: Hepatocyte metabolite profile with and without ABT (human); type: in vitro ADME; conditions: 4 h, 2 μmol/L
Description: Cryopreserved dog and human hepatocytes were obtained from BioreclamationIVT (Baltimore, MD). […] A stock solution of canagliflozin and DTPQ was added to medium to give a final incubation concentration of 2 μmol/L. The incubations including the media and cells were quenched after 4 hours with an equal volume of acetonitrile containing 200 ng/mL niflumic acid as internal standard. Samples were centrifuged at 3500 g for 10 minutes and the supernatant was analyzed by liquid chromatography coupled to a diode array UV detection and mass spectrometry system consisting of the Acquity ultra‐performance liquid chromatography column, Synapt G2‐S mass spectrometer, and an ultra‐performance liquid chromatography photodiode array detector (Waters, Milford, MA). The chromatographic separation of metabolites was achieved on a Waters 1.7‐μm Acquity BEH C18 (100 × 2.1 mm) column maintained at 60°C. The mobile phase consisted of solvent A (0.2% formic acid in water for DPTQ and 10 mmol/L ammonium acetate in water for canagliflozin) and solvent B (100% acetonitrile). The samples were eluted, at a flow rate of 0.5 mL/min with a gradient for 5 minutes. The LC/MS full scan data were processed by Metabolynx (Waters, Milford, MA) to identify metabolites. Product ion spectra were acquired to confirm the metabolites. The mass spectrometer was operated in positive ion mode with an electrospray ionization source. The parameters for the chamber were: capillary 1.0 kV, sample cone 50 V, source temperature 120°C, desolvation 500°C, and collision energy 25 V. The peak areas for parent, metabolite and internal standard were integrated to allow for comparison between conditions.

[5] = MDR1‐MDCKII_inhibitor (2.5 µmol/L P‐gp inhibitor LSN335984)
[6] = 0.5 mg/kg, BDC dog, 0.5 mg/kg IV bolus
[7] = 0.5 mg/kg, BDC dog, 0.5 mg/kg IV bolus, read-out: V dss
[8] = 0.5 mg/kg, intact dog, 0.5 mg/kg IV bolus

T1 sequence (P08183 whole entry): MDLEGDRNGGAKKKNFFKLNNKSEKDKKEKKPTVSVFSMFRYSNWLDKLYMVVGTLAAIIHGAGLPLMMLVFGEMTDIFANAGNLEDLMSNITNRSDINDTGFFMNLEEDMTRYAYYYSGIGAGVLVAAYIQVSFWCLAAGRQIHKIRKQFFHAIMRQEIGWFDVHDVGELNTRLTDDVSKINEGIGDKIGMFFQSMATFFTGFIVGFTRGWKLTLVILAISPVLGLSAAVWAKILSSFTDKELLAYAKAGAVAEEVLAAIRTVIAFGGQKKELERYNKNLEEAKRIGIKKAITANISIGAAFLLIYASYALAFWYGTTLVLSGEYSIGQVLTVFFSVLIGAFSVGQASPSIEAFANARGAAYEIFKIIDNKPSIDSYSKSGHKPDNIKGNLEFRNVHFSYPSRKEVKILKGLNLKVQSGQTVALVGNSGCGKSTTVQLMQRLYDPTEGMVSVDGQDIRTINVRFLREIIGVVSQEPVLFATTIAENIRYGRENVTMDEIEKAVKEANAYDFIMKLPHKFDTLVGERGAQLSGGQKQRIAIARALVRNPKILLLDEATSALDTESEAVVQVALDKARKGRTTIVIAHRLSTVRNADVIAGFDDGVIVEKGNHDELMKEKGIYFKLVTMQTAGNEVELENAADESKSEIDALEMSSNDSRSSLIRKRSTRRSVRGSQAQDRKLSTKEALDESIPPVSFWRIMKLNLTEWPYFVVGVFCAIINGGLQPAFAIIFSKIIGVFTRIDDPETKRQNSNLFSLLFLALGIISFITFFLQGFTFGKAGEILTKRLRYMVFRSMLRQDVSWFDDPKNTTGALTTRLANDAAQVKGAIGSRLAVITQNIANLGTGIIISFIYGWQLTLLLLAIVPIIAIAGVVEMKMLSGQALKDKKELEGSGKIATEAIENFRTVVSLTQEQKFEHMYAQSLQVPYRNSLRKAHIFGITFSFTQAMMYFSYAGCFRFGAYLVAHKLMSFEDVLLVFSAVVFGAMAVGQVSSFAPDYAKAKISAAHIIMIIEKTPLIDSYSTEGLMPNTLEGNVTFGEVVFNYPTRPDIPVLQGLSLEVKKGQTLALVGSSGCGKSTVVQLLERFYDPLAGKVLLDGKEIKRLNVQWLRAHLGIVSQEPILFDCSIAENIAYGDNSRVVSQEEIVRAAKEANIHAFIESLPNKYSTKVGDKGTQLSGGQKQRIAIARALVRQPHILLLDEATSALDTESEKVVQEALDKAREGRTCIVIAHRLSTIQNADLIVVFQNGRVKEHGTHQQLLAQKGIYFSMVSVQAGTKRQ

With Cc1ccc([C@@H]2O[C@H](CO)[C@@H](O)[C@H](O)[C@H]2O)cc1Cc1ccc(-c2ccc(F)cc2)s1 [Canagliflozin] the “% dose in feces, Parent” value ([1]; BDC dog) was 3.3 ± 0.7 % dose, the “% dose in bile, Parent” value ([1]; BDC dog) was 4.66 ± 1.4 % dose and the “% dose in urine, Parent” value ([1]; BDC dog, ND = below quantitative limit 1 ng/mL) was 0.05 ± 0.08 % dose. The “% dose in bile, Parent” value ([1]; BDC dog, listed as canagliflozin) was 4.66 % dose, the “renal excretion of parent drug” value [1] was < 1 % of dose and the “Biliary excretion % of glucuronide” value [1] was “Low (Low 0%‐30%)”. The “Urinary excretion % of glucuronide” value [1] was “Low (Low 0%‐30%)”, the “% dose in feces, Parent” value ([1]; intact dog) was 2.25 ± 1.3 % dose and the “% dose in urine, Parent” value ([1]; intact dog) was 0.27 ± 0.15 % dose. The “PappB‐A/PappA‐B” value ([2]; MDR1‐MDCKII_control) was 22, the “PappA‐B” value ([2]; MDR1‐MDCKII_control) was 4.0 ± 1.8 10^–6cm/s and the “PappB‐A” value ([2]; MDR1‐MDCKII_control) was 89.2 ± 8.2 10^–6cm/s. The “PappB‐A/PappA‐B” value ([2]; MDR1‐MDCKII_inhibitor) was 1.3, the “PappA‐B” value [2, 5] was 10.8 ± 1.4 10^–6cm/s and the “PappB‐A” value [2, 5] was 14.1 ± 0.1 10^–6cm/s. For the same compound, the “P‐gp substrate” value [2] was “yes”, the “P‐gp substrate” value ([2]; listed as canagliflozin) was “P‐gp substrate” and the Pgp substrate [2] was “S”. The “MDCK permeability (passive membrane permeability)” value (“MDCK permeability” for short) [2] was “Moderate”, the “MDCK permeability” value ([2]; listed as canagliflozin) was “moderate” and the Net efflux ratio [2] was 17.1. For the same compound, the Net efflux ratio ([2]; listed as canagliflozin) was greater than 3, the EHC [3] was “No” and the AUC(0-inf) [3, 6] was 16.4 ± 5.9 µM·h. For the same compound, the half-life [3, 6] was 10.9 ± 1.8 h, the clearance [3, 6] was 1.32 ± 0.5 mL/min/kg and the AUC [3, 6] was 15.7 ± 5.4 µM·h. It also gave a Vd [3, 7] of 0.87 ± 0.28 L/kg, an AUC(0-inf) [3, 8] of 21.2 ± 3.9 µM·h and a half-life [3, 8] of 8.05 ± 0.62 h. It also gave a clearance [3, 8] of 0.93 ± 0.18 mL/min/kg, an AUC [3, 8] of 20.7 ± 3.7 µM·h and a Vd ([3]; 0.5 mg/kg, intact dog, 0.5 mg/kg IV bolus, read-out: V dss) of 0.72 ± 0.13 L/kg. For the same compound, the “Peak area (+ABT)” value [4] was 2019 and the “Peak area (‐ABT)” value [4] was 3414.

For C[C@H]1c2cccc(CC(C)(C)O)c2C[C@H](CO)N1C(=O)Cc1c(Cl)cccc1Cl [DPTQ, 2‐(2,6‐dichlorophenyl)‐1‐((1S,3R)‐5‐(2‐hydroxy‐2‐methylpropyl)‐3‐(hydroxymethyl)‐1‐methyl‐3,4‐dihydroisoquinolin‐2(1H)‐yl)ethan‐1‐one], the “% dose in feces, Parent” value ([1]; BDC dog) was 2.48 ± 4.8 % dose, the “% dose in bile, Parent” value ([1]; BDC dog) was 8.91 % dose and 8.91 ± 8.9 % dose and the “renal excretion of parent drug” value [1] was < 1 % of dose. The “Biliary excretion % of glucuronide” value [1] was “Moderate (moderate 30%‐70%)”, the “Urinary excretion % of glucuronide” value [1] was “Low (Low 0%‐30%)” and the “% dose in feces, Parent” value ([1]; intact dog) was 13.5 ± 5.8 ^a % dose. For the same compound, the “% dose in urine, Parent” value ([1]; intact dog) was 0.64 ± 1.1 % dose, the “PappB‐A/PappA‐B” value ([2]; MDR1‐MDCKII_control) was 1.5 and the “PappA‐B” value ([2]; MDR1‐MDCKII_control) was 43.0 ± 4.5 10^–6cm/s. The “PappB‐A” value ([2]; MDR1‐MDCKII_control) was 62.6 ± 2.6 10^–6cm/s, the “PappB‐A/PappA‐B” value ([2]; MDR1‐MDCKII_inhibitor) was 1.1 and the “PappA‐B” value [2, 5] was 48.9 ± 5.9 10^–6cm/s. The “PappB‐A” value [2, 5] was 53.5 ± 0.4 10^–6cm/s, the “P‐gp substrate” value [2] was “not a P‐gp substrate and no” and the Pgp substrate [2] was “NS”. The “MDCK permeability” value [2] was “high and High”, the EHC [3] was “Yes” and the “CL0‐48 h” value ([3]; intact dog, 0.5 mg/kg IV bolus, AUCinf not extrapolated, CL from AUC0‐48 hours, 0.5 mg/kg) was 2.73 mL/min/kg and 2.73 ± 1.2 mL/min/kg. For the same compound, the AUC(0-inf) [3, 6] was 5.89 ± 3.3 µM·h, the half-life [3, 6] was 2.5 ± 2.3 h and the clearance [3, 6] was 4.43 ± 3.1 mL/min/kg. The AUC [3, 6] was 5.89 ± 3.3 µM·h, the Vd [3, 7] was 0.33 ± 0.07 L/kg and the AUC [3, 8] was 7.94 ± 2.5 µM·h. The Vd ([3]; 0.5 mg/kg, intact dog, 0.5 mg/kg IV bolus, AUCinf not extrapolated, read-out: V dss 0‐48 hr) was 1.48 ± 0.25 L/kg, the “Peak area (+ABT)” value [4] was 2364 and the “Peak area (‐ABT)” value [4] was 2810.
